From patent US6399614B1, “1-(N-phenylaminoalkyl)piperazine derivatives substituted at position 2 of the phenyl ring” (Recordati S.A. Chemical and Pharmaceutical Company, priority 1997, dated 2002)

Assays:
[1] = target: T1, pre-synaptic 5-HT1A receptor (Mus musculus, UniProt Q64264); assay: Antagonism of hypothermia induced by 8-OH-DPAT in mice (pre-synaptic antagonism); type: in vivo; settings: for ED50: mouse, iv, read-out: Pre-synaptic 5-HT1A ID50, heading: Pre-synaptic 5-HT1A ID50, dose blocking 50% of hypothermia induced by 0.5 mg/kg s.c. 8-OH-DPAT in mice, compound i.v.
T1 construct: from tissue; host or cells: whole animal, male CD-1 mice
T1 sequence (Q64264 1-421): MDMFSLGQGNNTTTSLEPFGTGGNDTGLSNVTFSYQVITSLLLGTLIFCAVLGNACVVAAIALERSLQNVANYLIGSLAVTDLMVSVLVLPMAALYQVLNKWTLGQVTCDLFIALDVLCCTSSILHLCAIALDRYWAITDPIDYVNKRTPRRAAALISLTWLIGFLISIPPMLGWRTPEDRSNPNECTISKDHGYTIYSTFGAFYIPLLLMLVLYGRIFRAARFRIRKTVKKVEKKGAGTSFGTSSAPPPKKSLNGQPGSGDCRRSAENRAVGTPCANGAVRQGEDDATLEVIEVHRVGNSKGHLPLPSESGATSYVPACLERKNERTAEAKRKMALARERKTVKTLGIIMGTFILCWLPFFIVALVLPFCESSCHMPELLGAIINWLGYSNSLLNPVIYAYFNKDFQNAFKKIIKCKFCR
Protocol: The antagonistic effect of the 5-HT1A receptor antagonists of the invention on hypothermia induced by 8-OH-DPAT was evaluated by the method of Moser (Moser, Eur.J.Pharmacol., 193:165, 1991) with minor modifications as described below. Male CD-1 mice (28-38 g) obtained from Charles River (Italy) were housed in a climate-controlled room (temperature 22±2 C.; humidity 55±15%) and maintained on a 12 h light/dark cycle with free access to food and water. On the day of experiment, mice were placed singly in clear plastic boxes under the same ambient conditions. Body temperature was measured by the insertion of a temperature probe (Termist TM-S, LSI) into the rectum to a depth of 2 cm. Rectal temperature was measured immediately prior to intravenous injection of the test compound. All animals then received 8-OH-DPAT (0.5 mg/kg s.c.) and their temperature was measured 30 min later. For each animal, temperature changes were calculated with respect to pretreatment values and the mean values were calculated for each treatment group. A linear regression equation was used in order to evaluate ID50 values, defined as the dose of antagonist needed to block 50% of the hypothermic effect induced by 0.5 mg/kg 8-OH-DPAT administered subcutaneously.

[2] = target: T2, 5-HT2A serotonergic receptors (Rattus norvegicus, UniProt P14842); assay: Radioreceptor binding, native 5-HT2A receptors, rat cerebral cortex ([3H]ketanserin); settings: Table 3A not given
T2 construct: from tissue; host or cells: rat cerebral cortex membranes
Protocol: (§1) Binding studies on native α2 adrenergic receptors (Diop L. et al, J. Neurochem. 41, 710-715, 1983), and 5-HT2A serotonergic receptors (Craig A. and Kenneth J., Life Sci. 38, 117-127, 1986) were carried out in membranes of rat cerebral cortex. Male Sprague Dawley rats (200-300 g, SD Harlan/Nossan, Italy) were killed by cervical dislocation and cerebral cortexes were excised and immediately frozen in liquid nitrogen and stored at −70° C. until use. Tissues were homogenized (2×20 sec) in 50 volumes of cold 50 mM Tris-HCl buffer pH 7.4, using a Polytron homogenizer (speed 7). Homogenates were centrifuged at 49000×g for 10 min, resuspended in 50 volumes of the same buffer, incubated at 37° C. for 15 min and centrifuged and resuspended twice more. […] Non-specific binding was determined in the presence of 10 μM phentolamine (a2-adrenergic receptors) or 2 μM ketanserin (5-HT2A serotoninergic receptors). […] The filters are then washed with ice-cold buffer and the radioactivity retained on the filters was counted by liquid scintillation spectrometry.
(§2) The inhibition of specific binding of the radioligands by the tested drugs was analyzed to estimate the IC50 value by using the non-linear curve-fitting program Allfit (De Lean et al., Am. J. Physiol. 235, E97-E102, 1978). […]

α2 adrenergic receptors = assay: Radioreceptor binding, native α2-adrenoceptors, rat cerebral cortex ([3H]rauwolscine); settings: Table 3A not given
Protocol: as §1, §2

T2 sequence (P14842 whole entry): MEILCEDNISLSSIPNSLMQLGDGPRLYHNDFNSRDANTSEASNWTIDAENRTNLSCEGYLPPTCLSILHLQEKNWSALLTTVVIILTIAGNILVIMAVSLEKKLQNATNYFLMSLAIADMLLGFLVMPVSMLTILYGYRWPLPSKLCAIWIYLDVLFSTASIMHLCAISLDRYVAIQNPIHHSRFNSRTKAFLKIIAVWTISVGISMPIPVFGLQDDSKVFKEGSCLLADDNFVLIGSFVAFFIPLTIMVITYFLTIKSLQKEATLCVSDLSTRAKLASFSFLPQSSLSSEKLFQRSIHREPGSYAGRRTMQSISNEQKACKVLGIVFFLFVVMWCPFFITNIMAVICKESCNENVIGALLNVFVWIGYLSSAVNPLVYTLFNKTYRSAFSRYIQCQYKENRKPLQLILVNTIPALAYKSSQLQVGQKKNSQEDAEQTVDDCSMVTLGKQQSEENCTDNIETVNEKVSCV

In the case of `COc1ccccc1N1CCN(CCN(C(=O)C2CCCCC2)c2ccccc2)CC1` [Compound A, 1-(N-phenyl-N-cyclohexylcarbonyl-2-aminoethyl)-4-(2-methoxyphenyl)piperazine, reference compound], the “fold less active than compound of Example 2, pre-synaptic model” value ([1]; hypothermia model in mice) is reported as “at least 10 fold” and the ED50 [1] is reported as 221 µg/kg.
In the case of `COc1ccccc1N1CCN(CCN(C(=O)C2CCCCC2)c2ccccc2[N+](=O)[O-])CC1` [Example 2, 1-[N-(2-nitrophenyl)-N-cyclohexylcarbonyl-2-aminoethyl]-4-(2-methoxyphenyl) piperazine], the “selectivity for the 5-HT1A receptor versus the 5-HT2A” value [2] is reported as “much more selective than compound A”, the ED50 [1] is reported as 20 µg/kg and the “selectivity for the 5-HT1A receptor versus the a2-adrenoceptors” value (α2 adrenergic receptors) is reported as “much more selective than compound A”.
